Converted amounts (≈) assume the structure as drawn. The source made the active and inactive calls. The calls are words filed in the database; no cut-off is given here.
Columns and labels:
[1] = target: UDP-N-acetylglucosamine 1-carboxyvinyltransferase (Escherichia coli K-12) (UniProt P0A749); assay: Inhibition of recombinant Escherichia coli MurA expressed in Escherichia coli NiCo21 assessed as residual activity using UNAG and PEP as substrate at 500 uM preincubated for 30 mins in presence of UNAG followed by PEP substrate addition and measured after 15 mins by malachite green based colorimetric assay; details: time 45.0 min
Staphylococcus aureus [2] = assay: Antibacterial activity against Staphylococcus aureus ATCC 29213 assessed as bacterial growth inhibition incubated for 24 hrs by broth dilution method; format: functional
[3] = Thiol reactivity of compound at pH 7.4 buffer at 100 uM and measured for 4 hrs every 5 mins in presence of DTNB and TCEP by microplate reader analysis; format: physicochemical; details: pH 7.4, 4 h
Escherichia coli [4] = assay: Antibacterial activity against Escherichia coli ATCC 25922 assessed as bacterial growth inhibition incubated for 24 hrs by broth dilution method; format: functional
[5] = Thiol reactivity of compound at pH 7.4 buffer assessed as fold decrease by measuring second order rate constant at 100 uM and measured for 4 hrs every 5 mins in presence of DTNB and TCEP by microplate reader analysis relative to Iodoacetamide; format: physicochemical; details: pH 7.4, 4 h
[6] = target: UDP-N-acetylglucosamine 1-carboxyvinyltransferase (Escherichia coli K-12) (UniProt P0A749); assay: Inhibition of recombinant Escherichia coli MurA expressed in Escherichia coli NiCo21 using UNAG and PEP as substrate and measured for 15 mins by malachite green based colorimetric assay
Staphylococcus aureus [7] = assay: Antibacterial activity against Staphylococcus aureus ATCC 29213 assessed as bacterial growth inhibition at <= 128 ug/ml incubated for 24 hrs by broth dilution method; format: functional, organism-based; details: dose <= 128.0 µg/ml
[8] = target: UDP-N-acetylglucosamine 1-carboxyvinyltransferase (Escherichia coli K-12) (UniProt P0A749); assay: Binding affinity to UNAG activated recombinant Escherichia coli MurA Cys115 residue at 5 mM incubated for 30 mins in presence of UNAG by LC-MS/MS analysis
[9] = target: UDP-N-acetylglucosamine 1-carboxyvinyltransferase (Escherichia coli K-12) (UniProt P0A749); assay: (§1) Irreversible inhibition of recombinant Escherichia coli MurA expressed in Escherichia coli NiCo21 assessed as residual activity using UNAG and PEP as substrate at 400 uM preincubated for 30 mins in presence of UNAG followed by 100 fold dilution and PEP substrate addition and measured after 15 mins by malachite green based colorimetric assay; details: time 45.0 min
[10] = target: UDP-N-acetylglucosamine 1-carboxyvinyltransferase (Escherichia coli K-12) (UniProt P0A749); assay: as §1, with “by” for “by 100 fold dilution and”; details: time 45.0 min
[11] = target: T1, UDP-N-acetylglucosamine 1-carboxyvinyltransferase (Escherichia coli K-12, UniProt P0A749); assay: Inhibition of recombinant Escherichia coli MurA expressed in Escherichia coli NiCo21 using UNAG and PEP as substrate preincubated for 30 mins in presence of UNAG followed by PEP substrate addition and measured after 15 mins by malachite green based colorimetric assay
Escherichia coli [12] = assay: Antibacterial activity against Escherichia coli ATCC 25922 assessed as bacterial growth inhibition at <=128 ug/ml incubated for 24 hrs by broth dilution method; format: functional, organism-based; details: dose <= 128.0 µg/ml
[13] = target: T1, UDP-N-acetylglucosamine 1-carboxyvinyltransferase; assay: Inhibition of recombinant Escherichia coli MurA expressed in Escherichia coli NiCo21 using UNAG and PEP as substrate preincubated for 15 mins in presence of UNAG followed by PEP substrate addition and measured after 15 mins by malachite green based colorimetric assay
[14] = target: UDP-N-acetylglucosamine 1-carboxyvinyltransferase (Escherichia coli K-12) (UniProt P0A749); assay: as §1, with “NiCo21” for “NiCo21 assessed as residual activity”, “assessed as second-order rate constant for enzyme inactivation, ratio of Kinact/Ki” for “at 400 uM”; details: time 45.0 min

Sequence of UDP-N-acetylglucosamine 1-carboxyvinyltransferase (Escherichia coli K-12) (P0A749 whole entry): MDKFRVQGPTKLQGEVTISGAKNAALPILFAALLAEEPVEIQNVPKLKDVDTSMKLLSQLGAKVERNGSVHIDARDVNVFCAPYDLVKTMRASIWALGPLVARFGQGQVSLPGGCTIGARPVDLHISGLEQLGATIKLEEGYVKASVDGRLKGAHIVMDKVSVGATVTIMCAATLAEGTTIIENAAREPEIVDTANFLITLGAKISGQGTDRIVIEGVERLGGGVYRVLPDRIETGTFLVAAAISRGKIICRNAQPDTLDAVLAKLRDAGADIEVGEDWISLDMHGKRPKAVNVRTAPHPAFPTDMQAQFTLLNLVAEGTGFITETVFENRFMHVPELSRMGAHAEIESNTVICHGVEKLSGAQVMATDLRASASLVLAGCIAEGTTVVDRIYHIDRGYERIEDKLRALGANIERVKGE
T1 sequence (P0A749 whole entry): as above

Row | Activity [1] [%] | MIC (Staphylococcus aureus [2]) [mg/L] | Drug metabolism [3] | MIC (Escherichia coli [4]) [mg/L] | fold change (FC) [5] | inhibition [6] | Activity [8] | Activity [9] | Activity [10] [%] | IC50 [11] [µM] | IC50 [13] [µM] | Ratio [14] | Structure (SMILES) | Activity (Staphylococcus aureus [7]) | Activity (Escherichia coli [12])
1 | 81 | 4 (≈ 14.7 µM) | Metabolite_Detected | 16 (≈ 58.6 µM) | 3 | – | – | – | – | – | – | – | O=C(CCl)N1CCN(CCC2CCCCC2)CC1 | – | –
2 | – | – | Metabolite_Notdetected | – | 33 | inactive | Active | inactive | 1.6 | 39 | 400 | 4.78 10^-3/µM/min | O=C(CCl)NC1CCCC2CCCCC21 (stereo unspecified) | inactive | inactive
